Results taken from patent publication US20240092761A1, “QUINAZOLINE COMPOUNDS AND METHODS OF USE” (IAMBIC THERAPEUTICS, INC., priority 2022, published 2024).

How the values were obtained:
CDK1/Cyclin B1 = CDK1/Cyclin B1 (Homo sapiens (Human), UniProt P06493); experiment: CDK1/Cyclin B1 ADP-Glo Kinase Assay; assay type: biochemical; settings: 80 uM ATP
Summary of the method: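 CDK1/cyclin B1 (4.917 nM) preincubated 30 min with inhibitor (2% DMSO), then 80 µM ATP (Km 78.6 µM) and 0.75 µM substrate added; 90 min, room temperature, pH 7.5. ADP measured by ADP-Glo luminescence; IC50 from 4-parameter fit.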

[1] = molecular target: CDK2/Cyclin E1 full length (Homo sapiens (Human), UniProt P24941); experiment: CDK2/Cyclin E1 Full Length ADP-Glo Kinase Assay; assay type: biochemical; settings: 20 uM ATP, read-out: CDK2/ CyclinE1 IC50
Summary of the method: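 Full-length human CDK2/Cyclin E1 (0.328 nM) pre-incubated 30 min with inhibitor at RT, then reacted 90 min at RT with 20 uM ATP (Km 64.78 uM) and 0.75 uM substrate in pH 7.5 HEPES, 2% DMSO. ADP measured by ADP-Glo luminescence; IC50 from 4-parameter fit of fractional velocity.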

CDK4/Cyclin D1 [2] = molecular target: T1, CDK4/Cyclin D1 (Homo sapiens (Human), UniProt P11802); experiment: CDK4/Cyclin D1 Mobility Shift Assay (MSA); assay type: biochemical; settings: 0.2 mM ATP, read-out: CDK4/ CyclinD1 MSA IC50
From the text: CDK4/Cyclin D1 Mobility Shift Assay (MSA)
The purpose CDK4/Cyclin D1 assay is to evaluate the inhibition (% inhibition and IC50 values) in the presence of small molecule inhibitors by using a fluorescence based microfluidic mobility shift assay. CDK4/Cyclin D1 catalyzes the production of ADP from ATP that accompanies the phosphoryl transfer to the substrate peptide 5-FAM-Dyrktide (5-FAM-RRRFRPASPLRGPPK) (Perkin Elmer Peptide 34). The mobility shift assay (MSA) electrophoretically separates the fluorescently labelled peptides (substrate and phosphorylated product) following the kinase reaction. Both substrate and product are measured, and the ratio of these values is used to generate % conversion of substrate to product by the LabChip EZ Reader. Typical reaction solutions contained 2% DMSO (+/−inhibitor), 10 mM MgCl2, 1 mM EGTA, 0.05% BSA, 2 mM DTT, 0.2 mM ATP, 0.01% Brig-35, 1.5 uM 5-FAM-Dyrktide, 2.5 nM CDK4/Cyclin D1 in 50 mM HEPES buffer at pH 7.5. The reaction was initiated with the addition of substrate solution, following a 30-minute pre-incubation of enzyme and inhibitor at 22° C. in the reaction mix. The reaction was stopped after 180 minutes by the addition of 75 uL of 500 mM EDTA and measured on a Perkin Elmer EZ reader instrument. IC50 determinations were made from a plot of the fractional velocity as a function of inhibitor concentration fit to the 4 parameters IC50 equation.

CDK6/Cyclin D3 = CDK6/Cyclin D3 (Homo sapiens (Human), UniProt Q00534); experiment: CDK6/Cyclin D3 ADP-Glo Kinase Assay; assay type: biochemical; settings: 100 uM ATP, read-out: CDK6/ CyclinD3 IC50
Summary of the method: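 Recombinant human CDK6/Cyclin D3 pre-incubated 30 min with inhibitor at room temperature, then reaction started with ATP/substrate and run 90 min at room temperature. ADP formed detected by ADP-Glo luminescence; IC50 from a 4-parameter fit of fractional velocity versus inhibitor concentration.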

CDK4/Cyclin D1 [3] = molecular target: T1, CDK4/Cyclin D1; experiment: CDK4/Cyclin D1 CHEF Assay (AQT0258 peptide); assay type: biochemical; settings: 200 uM ATP, read-out: CDK4/ CyclinD1 AQT IC50
Summary of the method: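 CDK4/Cyclin D1 (2.5 nM) phosphorylating 10 uM Sox-labelled peptide AQT0258 with 200 uM ATP (Km 195.2 uM), 10 mM MgCl2, 2% DMSO, 54 mM HEPES pH 7.5. Enzyme and inhibitor pre-incubated 30 min, reaction 3 hrs at 22° C.; CHEF fluorescence (ex 360/em 485 nm), IC50 from fractional velocity, 4-parameter fit.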

MCF-7 cells = experiment: Cell Growth Inhibition, MCF-7 (CellTiterGlo, 6 days); assay type: cell-based; settings: Homo sapiens, MCF7, 144 h; MCF-7, 6-day treatment, CellTiterGlo 2.0
Summary of the method: (§1)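 MCF-7 and OVCAR-3 cells (RPMI, 10% FBS) were seeded at 500 cells/well onto compound, typically 10–10,000 nM in half-log dilutions. Growth proceeded 6 days at 37 °C, then CellTiterGlo luminescence was read. % inhibition was taken versus control, and IC50 came from a four-parameter variable-slope fit.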

OVCAR-3 cells = experiment: Cell Growth Inhibition, OVCAR-3 (CellTiterGlo, 6 days); assay type: cell-based; settings: Homo sapiens, 144 h; OVCAR-3, 6-day treatment, CellTiterGlo 2.0
Summary of the method: as §1

Sequence of CDK6/Cyclin D3 (Q00534 whole entry): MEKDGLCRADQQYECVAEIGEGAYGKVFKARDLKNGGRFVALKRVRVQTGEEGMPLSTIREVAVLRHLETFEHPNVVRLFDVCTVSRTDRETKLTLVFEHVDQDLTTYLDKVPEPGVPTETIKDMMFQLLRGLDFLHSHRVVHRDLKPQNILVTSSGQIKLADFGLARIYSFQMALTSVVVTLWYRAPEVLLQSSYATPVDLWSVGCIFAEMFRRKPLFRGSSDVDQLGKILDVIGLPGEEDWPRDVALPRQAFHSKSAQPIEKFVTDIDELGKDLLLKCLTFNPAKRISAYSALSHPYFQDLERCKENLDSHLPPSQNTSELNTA
Sequence of CDK6/Cyclin D3 (P30281 whole entry partner): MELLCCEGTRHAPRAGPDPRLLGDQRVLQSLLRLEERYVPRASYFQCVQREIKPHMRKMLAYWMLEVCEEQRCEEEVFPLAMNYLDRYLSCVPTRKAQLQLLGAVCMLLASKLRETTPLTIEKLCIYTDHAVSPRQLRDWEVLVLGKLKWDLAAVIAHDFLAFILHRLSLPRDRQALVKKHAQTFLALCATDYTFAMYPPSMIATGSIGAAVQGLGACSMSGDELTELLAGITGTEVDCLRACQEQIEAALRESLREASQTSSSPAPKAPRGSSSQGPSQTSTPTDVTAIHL
T1 sequence (P11802 whole entry): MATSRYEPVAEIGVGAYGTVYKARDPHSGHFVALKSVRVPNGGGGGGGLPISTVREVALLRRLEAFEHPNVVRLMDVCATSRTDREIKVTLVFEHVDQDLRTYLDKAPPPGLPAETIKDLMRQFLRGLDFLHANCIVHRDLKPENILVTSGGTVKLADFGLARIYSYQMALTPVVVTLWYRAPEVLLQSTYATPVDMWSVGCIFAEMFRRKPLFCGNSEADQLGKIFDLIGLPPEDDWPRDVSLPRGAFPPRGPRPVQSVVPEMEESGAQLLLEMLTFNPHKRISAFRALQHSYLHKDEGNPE
T1 sequence (P24385 whole entry partner): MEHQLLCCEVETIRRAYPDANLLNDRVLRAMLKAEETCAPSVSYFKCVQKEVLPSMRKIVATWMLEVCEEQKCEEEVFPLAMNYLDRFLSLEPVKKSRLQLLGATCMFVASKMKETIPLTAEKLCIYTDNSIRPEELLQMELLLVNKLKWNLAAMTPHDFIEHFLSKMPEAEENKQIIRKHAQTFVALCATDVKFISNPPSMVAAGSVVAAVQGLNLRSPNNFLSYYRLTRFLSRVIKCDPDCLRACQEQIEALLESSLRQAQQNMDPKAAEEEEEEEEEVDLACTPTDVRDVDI
Sequence of CDK1/Cyclin B1 (P06493 whole entry): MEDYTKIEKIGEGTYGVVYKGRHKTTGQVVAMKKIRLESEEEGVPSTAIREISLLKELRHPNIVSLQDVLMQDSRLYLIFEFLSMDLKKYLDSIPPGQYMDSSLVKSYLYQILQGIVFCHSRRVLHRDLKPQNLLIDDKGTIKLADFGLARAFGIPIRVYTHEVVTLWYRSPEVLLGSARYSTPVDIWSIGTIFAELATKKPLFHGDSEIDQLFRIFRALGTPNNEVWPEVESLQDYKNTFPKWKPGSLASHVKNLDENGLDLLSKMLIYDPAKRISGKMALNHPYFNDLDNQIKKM
Sequence of CDK1/Cyclin B1 (P14635 whole entry partner): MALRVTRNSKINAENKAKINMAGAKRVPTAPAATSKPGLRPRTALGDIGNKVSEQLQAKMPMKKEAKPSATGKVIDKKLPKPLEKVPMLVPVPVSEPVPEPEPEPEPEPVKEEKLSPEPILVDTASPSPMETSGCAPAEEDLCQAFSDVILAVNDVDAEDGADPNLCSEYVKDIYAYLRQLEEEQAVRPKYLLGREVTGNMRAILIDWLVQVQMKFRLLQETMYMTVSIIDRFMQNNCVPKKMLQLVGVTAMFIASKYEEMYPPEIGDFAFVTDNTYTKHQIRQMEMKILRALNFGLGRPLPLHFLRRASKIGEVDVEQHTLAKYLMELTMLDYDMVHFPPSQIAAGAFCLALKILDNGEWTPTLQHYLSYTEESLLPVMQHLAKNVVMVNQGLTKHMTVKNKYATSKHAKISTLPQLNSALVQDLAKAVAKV

| SMILES | IC50 (CDK1/Cyclin B1) [nM] | IC50 [1] [nM] | IC50 (CDK4/Cyclin D1 [2]) [nM] | IC50 (CDK6/Cyclin D3) [nM] | IC50 (CDK4/Cyclin D1 [3]) [nM] | IC50 (MCF-7 cells) [nM] | IC50 (OVCAR-3 cells) [nM] |
| --- | --- | --- | --- | --- | --- | --- | --- |
| CS(=O)(=O)N1CCC(Nc2ncc3cccc(N4CCCC4)c3n2)CC1 [Example 2, N-(1-(methylsulfonyl)piperidin-4-yl)-8-(pyrrolidin-1-yl)quinazolin-2-amine] | 500 to 2000 | < 200 | < 200 | < 200 |  |  |  |
| CC(=O)N1CC2(CCN(c3cccc4cnc(NC5CCN(S(C)(=O)=O)CC5)nc34)C2)C1 [Example 5, 1-(6-(2-((1-(methylsulfonyl)piperidin-4-yl)amino)quinazolin-8-yl)-2,6-diazaspiro[3.4]octan-2-yl)ethan-1-one] | > 2000 | 200 to 500 | 500 to 2000 | 500 to 2000 |  |  |  |
| CS(=O)(=O)N1CCC(Nc2ncc3cccc(N4CCCC5(CCOC5)C4)c3n2)CC1 (stereo not shown) [Example 7, N-(1-(methylsulfonyl)piperidin-4-yl)-8-(2-oxa-7-azaspiro[4.5]decan-7-yl)quinazolin-2-amine] | > 2000 | < 200 | 200 to 500 | 500 to 2000 |  |  |  |
| CS(=O)(=O)N1CCC(Nc2ncc3cccc(N4CCCC5(COC5)C4)c3n2)CC1 [Example 8, N-(1-(methylsulfonyl)piperidin-4-yl)-8-(2-oxa-6-azaspiro[3.5]nonan-6-yl)quinazolin-2-amine] | > 2000 | 200 to 500 | 500 to 2000 | 500 to 2000 |  |  |  |
| CS(=O)(=O)N1CCC(Nc2ncc3cc(C(F)F)cc(C4CC(O)(C(F)F)C4)c3n2)CC1 (stereo not shown) [Example 113, 1-(difluoromethyl)-3-(6-(difluoromethyl)-2-((1-(methylsulfonyl)piperidin-4-yl)amino)quinazolin-8-yl)cyclobutan-1-ol] | < 200 | < 200 |  | < 200 | < 200 | 200 to 500 | 200 to 500 |
| CS(=O)(=O)N1CCC(Nc2ncc3cc(C(F)(F)F)cc(C4CC(O)(C5CC5)C4)c3n2)CC1 (stereo not shown) [Example 114, 1-cyclopropyl-3-(2-((1-(methylsulfonyl)piperidin-4-yl)amino)-6-(trifluoromethyl)quinazolin-8-yl)cyclobutan-1-ol] | < 200 | < 200 |  | < 200 | < 200 | > 2000 | > 2000 |
| CS(=O)(=O)N1CCC(Nc2ncc3cc(C(F)F)cc(N4CC5(CNCC5(F)F)C4)c3n2)CC1 [Example 115, 8-(8,8-difluoro-2,6-diazaspiro[3.4]octan-2-yl)-6-(difluoromethyl)-N-(1-(methylsulfonyl)piperidin-4-yl)quinazolin-2-amine] | < 200 | < 200 |  | < 200 | < 200 | 500 to 2000 | 500 to 2000 |
| CS(=O)(=O)N1CCC(Nc2ncc3cc(C(F)(F)F)cc(N4CC5(CNCC5(F)F)C4)c3n2)CC1 [Example 116, 8-(8,8-difluoro-2,6-diazaspiro[3.4]octan-2-yl)-N-(1-(methylsulfonyl)piperidin-4-yl)-6-(trifluoromethyl)quinazolin-2-amine] | 500 to 2000 | < 200 |  | < 200 | < 200 | 500 to 2000 | > 2000 |
| CS(=O)(=O)N1CCC(Nc2ncc3cccc(C4CC(O)(C(F)F)C4)c3n2)CC1 (stereo not shown) [Example 120, 1-(difluoromethyl)-3-(2-((1-(methylsulfonyl)piperidin-4-yl)amino)quinazolin-8-yl)cyclobutan-1-ol] | < 200 | < 200 |  | < 200 | < 200 | 500 to 2000 | 200 to 500 |
| CS(=O)(=O)N1CCC(Nc2ncc3cccc(C4CC(CO)(C(F)F)C4)c3n2)CC1 (stereo not shown) [Example 121, (1-(difluoromethyl)-3-(2-((1-methanesulfonylpiperidin-4-yl)amino)quinazolin-8-yl)cyclobutyl]methanol] | 200 to 500 | < 200 |  | < 200 | < 200 | > 2000 | 500 to 2000 |
